Earlier results, collected in US20170333404A1, “IMPROVED FORMULATIONS OF VEMURAFENIB AND METHODS OF MAKING THE SAME” (DISPERSOL TECHNOLOGIES, LLC, priority 2014, published 2017).

Tests used:
[1] = system: BRAFV600E/K mutant advanced or malignant melanoma; details: Trametinib arm
[2] = compared to the crystalline form
V600E mutation in b-raf = details: patients with a V600E mutation in b-raf
[3] = not given; remark: listed apart in the source
melanoma = details: at 5 years, adjuvant treatment

CC(=O)Nc1cccc(-n2c(=O)n(C3CC3)c(=O)c3c(Nc4ccc(I)cc4F)n(C)c(=O)c(C)c32)c1 [Trametinib]
Grade 3 adverse effect: hypertension [1]: 12%
Grade 3 adverse effect: rash [1]: 7%

CCCS(=O)(=O)Nc1ccc(F)c(C(=O)c2c[nH]c3ncc(-c4ccc(Cl)cc4)cc23)c1F [amorphous form of vemurafenib, vemurafenib]
solubility in water [2]: improved solubility in water

CCCS(=O)(=O)Nc1ccc(F)c(C(=O)c2c[nH]c3ncc(-c4ccc(Cl)cc4)cc23)c1F [vemurafenib]
programmed cell death (melanoma cell lines; melanoma cell lines): cause programmed cell death
inhibition of melanoma cells (melanoma cell lines; melanoma cells without BRAF V600E/V600K mutations): not inhibited
patients with reduced numbers of cancer cells (advanced melanoma; group of 16 patients with advanced melanoma): over half
median increased survival time over the control group (advanced melanoma; treated group vs control group): 6 months
patients showing partial to complete regression (V600E mutation in b-raf): ~80%
arthralgia, patients (BRIM-2, 132 patients): 58%
photosensitivity, patients (BRIM-2, 132 patients): 52%
skin rash, patients (BRIM-2, 132 patients): 52%
patients in whom dose modification was necessary (BRIM-2, to manage side effects): 45%
patients with skin lesions that may need surgical removal ([3]; at MTD of 960 mg twice a day): 31%
maximum tolerated dose (MTD) ([3]; patients): 960 mg twice a day

interferon
increase in survival (melanoma): 3%
